# Experimental data from ChEMBL document CHEMBL1201862, “PubChem BioAssay data set” (2004).
# Values joined by “and” are separate entries in the source; they are usually repeats but may differ in a detail not shown here. Equal values may be shown once.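 Following 48 hours of exposure in 96-well plates, responses at five concentrations were used to interpolate endpoints linearly. At the GI50, growth is halved.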 Active and inactive are the calls of the source. No stated cut-off is given here; in the data, active = GI50 up to about 1.1 µM and inactive = higher.
# What was measured:
# Test in all cases: DTP human tumour cell line panel, 48 h
# K562 = tested on: K562
# KM12 = tested on: KM12
# SF-539 = tested on: SF-539
# HCC 2998 = tested on: HCC 2998
# SNB-75 = tested on: SNB-75
# SF-295 = tested on: SF-295
# SK-MEL-28 = tested on: SK-MEL-28
# NCI-H23 = tested on: NCI-H23
# HOP-62 = tested on: HOP-62
# SW-620 = tested on: SW-620
# T47D = tested on: T47D
# 786-0 = tested on: 786-0
# ACHN = tested on: ACHN
# CCRF-CEM = tested on: CCRF-CEM
# IGROV-1 = tested on: IGROV-1
# RXF 393 = tested on: RXF 393
# NCI-H226 = tested on: NCI-H226
# CAKI-1 = tested on: CAKI-1
# HCT-15 = tested on: HCT-15
# MDA-N = tested on: MDA-N
# HCT-116 = tested on: HCT-116
# SK-OV-3 = tested on: SK-OV-3
# NCI-H460 = tested on: NCI-H460
# MCF7 = tested on: MCF7
# SN12C = tested on: SN12C
# Malme-3M = tested on: Malme-3M
# OVCAR-5 = tested on: OVCAR-5
# UACC-257 = tested on: UACC-257
# LOX IMVI = tested on: LOX IMVI
# COLO 205 = tested on: COLO 205
# UO-31 = tested on: UO-31
# SF-268 = tested on: SF-268
# HL-60 = tested on: HL-60
# TK-10 = tested on: TK-10
# SK-MEL-2 = tested on: SK-MEL-2
# OVCAR-3 = tested on: OVCAR-3
# DU-145 = tested on: DU-145
# SNB-19 = tested on: SNB-19
# MDA-MB-231 = tested on: MDA-MB-231
# A549 = tested on: A549
# M14 = tested on: M14
# HOP-92 = tested on: HOP-92
# PC-3 = tested on: PC-3
# OVCAR-4 = tested on: OVCAR-4
# HT-29 = tested on: HT-29
# MOLT-4 = tested on: MOLT-4
# NCI-H522 = tested on: NCI-H522
# MDA-MB-435 = tested on: MDA-MB-435
# OVCAR-8 = tested on: OVCAR-8
# A498 = tested on: A498
# U-251 = tested on: U-251
# NCI/ADR-RES = tested on: NCI/ADR-RES
# UACC-62 = tested on: UACC-62
# EKVX = tested on: EKVX
# SR = tested on: SR
# Hs-578T = tested on: Hs-578T
# SK-MEL-5 = tested on: SK-MEL-5
smiles,measurement,setting,value
COC(=O)CNC(=O)CSc1nnc(COc2ccc(Cl)cc2)n1-c1ccccc1,GI50,K562,> 100 µM (inactive)
same,GI50,KM12,56.9 µM (inactive)
same,GI50,SF-539,> 100 µM (inactive)
same,GI50,HCC 2998,25.3 µM (inactive)
same,GI50,SNB-75,17.3 µM (inactive)
same,GI50,SF-295,> 100 µM (inactive)
same,GI50,SK-MEL-28,26.6 µM (inactive)
same,GI50,NCI-H23,40.3 µM (inactive)
same,GI50,HOP-62,> 100 µM (inactive)
same,GI50,SW-620,43.6 µM (inactive)
same,GI50,T47D,26.6 µM (inactive)
same,GI50,786-0,16.1 µM (inactive)
same,GI50,ACHN,24 µM (inactive)
same,GI50,CCRF-CEM,57.4 µM (inactive)
same,GI50,IGROV-1,21 µM (inactive)
same,GI50,RXF 393,23.1 µM (inactive)
same,GI50,NCI-H226,47.4 µM (inactive)
same,GI50,CAKI-1,16.9 µM (inactive)
same,GI50,HCT-15,> 100 µM
same,GI50,MDA-N,19.2 µM (inactive)
same,GI50,HCT-116,94.4 µM (inactive)
same,GI50,SK-OV-3,> 100 µM (inactive)
same,GI50,NCI-H460,56.8 µM (inactive)
same,GI50,MCF7,79.6 µM (inactive)
same,GI50,SN12C,19.8 µM (inactive)
same,GI50,Malme-3M,41.3 µM (inactive)
same,GI50,OVCAR-5,56.1 µM (inactive)
same,GI50,UACC-257,29.9 µM (inactive)
same,GI50,LOX IMVI,31.3 µM (inactive)
same,GI50,COLO 205,> 100 µM (inactive)
same,GI50,UO-31,27.4 µM (inactive)
same,GI50,SF-268,22.2 µM (inactive)
same,GI50,HL-60,30.1 µM (inactive)
same,GI50,TK-10,22 µM (inactive)
same,GI50,SK-MEL-2,23.5 µM (inactive)
same,GI50,OVCAR-3,71.8 µM (inactive)
same,GI50,DU-145,16.3 µM (inactive)
same,GI50,SNB-19,> 100 µM (inactive)
same,GI50,MDA-MB-231,20.5 µM (inactive)
same,GI50,A549,> 100 µM (inactive)
same,GI50,M14,37.3 µM (inactive)
same,GI50,HOP-92,31.8 µM (inactive)
same,GI50,PC-3,24 µM (inactive)
same,GI50,OVCAR-4,> 100 µM (inactive)
same,GI50,HT-29,40.6 µM (inactive)
same,GI50,MOLT-4,64.1 µM (inactive)
same,GI50,NCI-H522,15.3 µM (inactive)
same,GI50,MDA-MB-435,20.8 µM (inactive)
same,GI50,OVCAR-8,31 µM (inactive)
same,GI50,A498,> 100 µM (inactive)
same,GI50,U-251,38.6 µM (inactive)
same,GI50,NCI/ADR-RES,> 100 µM (inactive)
same,GI50,UACC-62,39.5 µM (inactive)
same,GI50,EKVX,> 100 µM (inactive)
c1ccc2c3nnc(c2c1)SCCSCCSc1nnc(c2ccccc12)SCCSCCS3,GI50,SNB-75,> 100 µM (inactive)
same,GI50,SF-295,> 100 µM (inactive)
same,GI50,HOP-62,> 100 µM (inactive)
same,GI50,SW-620,> 100 µM (inactive)
same,GI50,T47D,> 100 µM (inactive)
same,GI50,ACHN,> 100 µM (inactive)
same,GI50,IGROV-1,> 100 µM (inactive)
same,GI50,SR,> 100 µM (inactive)
same,GI50,HCT-15,> 100 µM
same,GI50,SK-OV-3,> 100 µM (inactive)
same,GI50,NCI-H460,> 100 µM (inactive)
same,GI50,SN12C,> 100 µM (inactive)
same,GI50,Malme-3M,> 100 µM (inactive)
same,GI50,UACC-257,> 100 µM (inactive)
same,GI50,LOX IMVI,> 100 µM (inactive)
same,GI50,COLO 205,> 100 µM (inactive)
same,GI50,SF-268,> 100 µM (inactive)
same,GI50,SK-MEL-2,> 100 µM (inactive)
same,GI50,OVCAR-3,> 100 µM (inactive)
same,GI50,MDA-MB-231,> 100 µM (inactive)
same,GI50,A549,> 100 µM (inactive)
same,GI50,Hs-578T,> 100 µM (inactive)
same,GI50,M14,> 100 µM (inactive)
same,GI50,HOP-92,> 100 µM (inactive)
same,GI50,PC-3,> 100 µM (inactive)
same,GI50,OVCAR-4,> 100 µM (inactive)
same,GI50,HT-29,> 100 µM (inactive)
same,GI50,MOLT-4,> 100 µM (inactive)
same,GI50,NCI-H522,> 100 µM (inactive)
same,GI50,OVCAR-8,> 100 µM (inactive)
same,GI50,NCI/ADR-RES,> 100 µM (inactive)
same,GI50,UACC-62,> 100 µM (inactive)
same,GI50,SK-MEL-5,> 100 µM (inactive)
same,GI50,EKVX,> 100 µM (inactive)
CC(=O)OCC1OC(n2c(-c3ccccc3)c(/N=N/c3ccc(Cl)cc3)c(C)c(C#N)c2=S)C(OC(C)=O)C(OC(C)=O)C1OC(C)=O (centres undefined),GI50,K562,6.76 µM (inactive) and 11.8 µM (inactive)
same,GI50,SF-539,14 µM (inactive) and 19.6 µM (inactive)
same,GI50,HOP-62,15.6 µM (inactive) and 27.8 µM (inactive)
same,GI50,SW-620,7.01 µM (inactive) and 12.4 µM (inactive)
same,GI50,786-0,19.5 µM (inactive) and 23.9 µM (inactive)
same,GI50,RXF 393,17.4 µM (inactive) and 13.2 µM (inactive)
same,GI50,CAKI-1,24.3 µM (inactive) and 14.3 µM (inactive)
same,GI50,TK-10,33.8 µM (inactive) and 24.6 µM (inactive)
same,GI50,Hs-578T,15.8 µM (inactive) and 15.3 µM (inactive)
same,GI50,PC-3,9.4 µM (inactive) and 5.09 µM (inactive)
same,GI50,MOLT-4,4.91 µM (inactive) and 3.56 µM (inactive)
